Consider 54 compounds from PMC8041284, “Tunable Methacrylamides for Covalent Ligand Directed Release Chemistry” (Journal of the American Chemical Society, 2021).

Read-outs that look alike come from different tables or passages of the source.

Broadly, the inhibition is the drop in the measured response relative to a control, in per cent.

The target of the assay is BTK (Homo sapiens, UniProt Q06187). Nature of the assay: biochemical.
Where [1] appears, read: read-out: BTK inhibition (%), 0.75 uM BTK, […] probe 3l, 15 min preincubation.

Chain of BTK (Q06187 402-655 limits assumed): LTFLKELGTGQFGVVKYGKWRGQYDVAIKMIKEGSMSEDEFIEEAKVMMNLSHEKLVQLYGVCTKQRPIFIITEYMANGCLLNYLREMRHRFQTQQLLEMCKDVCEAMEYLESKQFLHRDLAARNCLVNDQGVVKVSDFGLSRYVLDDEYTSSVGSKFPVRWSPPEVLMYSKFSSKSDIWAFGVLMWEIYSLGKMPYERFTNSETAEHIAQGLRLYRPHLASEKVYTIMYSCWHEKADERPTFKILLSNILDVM

In the case of `O=C(O)C(=O)O` [PCM-0216287], under setting [1], the inhibition at 10 µM is -10%.

With `O=c1ccc2cc(O)ccc2o1` [PCM-0216289], the inhibition at 10 µM under setting [1] was -10%.

With `O=c1ccn([C@@H]2O[C@H](COP(=O)(O)O)[C@@H](O)[C@H]2O)c(=O)[nH]1` [PCM-0216290], the inhibition at 10 µM under setting [1] is -6.8%.

Turning to `Nc1ncnc2c1ncn2[C@@H]1O[C@H](COP(=O)(O)OP(=O)(O)O)[C@@H](O)[C@H]1O` [PCM-0216291], the inhibition at 10 µM under setting [1] is 3.1%.

On to `O=c1[nH]c(=O)c2ncn([C@@H]3O[C@H](CO)[C@@H](O)[C@H]3O)c2[nH]1` [PCM-0216292], for which the inhibition at 10 µM under setting [1] came out at 13.1%.

Turning to `CC(=O)c1cc(O)ccc1O` [PCM-0216293], the inhibition at 10 µM under setting [1] is -1.5%.

For `O=c1cc(-c2ccc(O)cc2)oc2cccc(O)c12` [PCM-0216294], the inhibition at 10 µM under setting [1] is 32.4%.

For the compound `CCC/C=C1\OC(=O)C2=C1CCC=C2` [PCM-0216295], the inhibition at 10 µM under setting [1] stood at 14.7%.

For the compound `CC1(C)CC[C@]2(C(=O)O)[C@H](O)C[C@]3(C)C(=CC[C@@H]4[C@@]5(C)C[C@H](O)[C@H](O)[C@@](C)(CO)[C@@H]5CC[C@]43C)[C@@H]2C1` [PCM-0216296], the inhibition at 10 µM under setting [1] was -10.8%.

Consider `Oc1ccc2c(c1)OC[C@@H]1c3cc4c(cc3O[C@H]21)OCO4` [PCM-0216297], for which the inhibition at 10 µM under setting [1] was -20.1%.

As for `C[C@@H]([C@H](C)O)[C@H](N)C(=O)O` [PCM-0216300], the inhibition at 10 µM under setting [1] is -12.4%.

For `O=C(N[C@@H](c1ccccc1)[C@@H](O)C(=O)O)c1ccccc1` [PCM-0216301], under setting [1], the inhibition at 10 µM turned out to be 9.3%.

As to `O=C1O[C@H]2[C@@H]3OC(=O)c4cc(O)c(O)c(O)c4-c4c(cc(O)c(O)c4O)C(=O)OC[C@H]2O[C@@H](OC(=O)c2cc(O)c(O)c(O)c2)[C@@H]3OC(=O)c2cc(O)c(O)c3c2[C@@H]2C1=CC(=O)[C@](O)(O3)C2(O)O` [PCM-0216302], the inhibition at 10 µM under setting [1] amounted to 0%.

For `C=CC[S@+]([O-])C[C@H](N)C(=O)O` [PCM-0216303], under setting [1], the inhibition at 10 µM was -9.3%.

On to `CCN1C[C@]2(COC)CC[C@H](OC)[C@]34C1[C@H]([C@H](OC)[C@H]23)[C@@]1(OC(C)=O)C[C@H](OC)[C@@]2(O)C[C@@H]4[C@@H]1[C@H]2OC(=O)c1ccc(OC)cc1` [PCM-0216304], for which the inhibition at 10 µM (read-out: BTK inhibition (%)) was -17%.

On to `CC[C@H]1CN2CC[C@]3(C(=O)Nc4ccccc43)[C@@H]2C[C@@H]1/C(=C\OC)C(=O)OC` [PCM-0216305], for which, under setting [1], the inhibition at 10 µM amounted to 3.9%.

In the case of `COc1cc(/C=C/C(=O)OC[C@H]2O[C@H](O[C@]3(CO)O[C@H](CO)[C@@H](O)[C@@H]3OC(=O)/C=C/c3cc(OC)c(O)c(OC)c3)[C@H](O)[C@@H](O)[C@@H]2O)cc(OC)c1O` [PCM-0216306], under setting [1], the inhibition at 10 µM was -6.2%.

Consider `COC(=O)C1=CO[C@@H](O[C@@H]2O[C@H](CO)[C@@H](O)[C@H](O)[C@H]2O)[C@@H]2[C@@]3(C)O[C@H]3[C@@H](O)[C@]12O` [PCM-0216309], for which the inhibition at 10 µM under setting [1] is -0.8%.

On to `C[C@@H]1[C@H]2c3cc4c(cc3O[C@@]35OCOC3=CC(=O)[C@H](C[C@H]1C)[C@@H]25)OCO4` [PCM-0216310], for which the inhibition at 10 µM under setting [1] stood at 33.2%.

With `COc1ccc(CCO[C@@H]2O[C@H](CO[C@@H]3OC[C@H](O)[C@H](O)[C@H]3O)[C@@H](OC(=O)/C=C/c3ccc(O)c(OC)c3)[C@H](O[C@@H]3O[C@@H](C)[C@H](O)[C@@H](O)[C@H]3O)[C@H]2O)cc1O` [PCM-0216311], the inhibition at 10 µM under setting [1] was determined as 3.9%.

Regarding `CC(C)=CCC[C@H](C(=O)O)[C@@H]1CC[C@]2(C)C3=C(CC[C@@]12C)[C@@]1(C)CCC(=O)C(C)(C)[C@@H]1CC3` [PCM-0216312], the inhibition at 10 µM (read-out: BTK inhibition (%)) was -6.2%.

Consider `CC(=O)O[C@@H]1[C@H]2[C@@H](OC(=O)Cc3ccccc3)[C@@H](C)C[C@]2(OC(C)=O)C(=O)/C(C)=C/[C@@H]2[C@H](CC[C@]13CO3)C2(C)C` [PCM-0216313], for which, for the setting “read-out: BTK inhibition (%)”, the inhibition at 10 µM was -27.8%.

Regarding `COc1cc(O)c(C(=O)/C=C/c2ccccc2)c(OC)c1` [PCM-0216315], the inhibition at 10 µM under setting [1] amounted to 6.9%.

On to `COc1ccc(/C=C/c2cc(OC)cc(=O)o2)cc1` [PCM-0216316], for which the inhibition at 10 µM under setting [1] is -2.3%.

On to `C[C@@H]1C(=O)O[C@H](C)[C@H]1C[C@@H](O)[C@](C)(O)[C@H]1CC[C@@]2(O)C3=CC(=O)[C@@H]4C[C@@H](O)[C@@H](O)C[C@]4(C)[C@H]3CC[C@]12C` [PCM-0216317], for which the inhibition at 10 µM under setting [1] was -5.4%.

`O=C(O)CC(O)(CC(=O)OCc1ccc(O[C@@H]2O[C@H](CO)[C@@H](O)[C@H](O)[C@H]2O)cc1)C(=O)OCc1ccc(O[C@@H]2O[C@H](CO)[C@@H](O)[C@H](O)[C@H]2O)cc1` (stereo partly drawn) [PCM-0216319]: the inhibition at 10 µM under setting [1] is -28.6%.

Consider `COC1=C[C@@]23CCN(C)[C@@H](Cc4ccc(OC)c(O)c42)C3=CC1=O` [PCM-0216320], for which the inhibition at 10 µM (read-out: BTK inhibition (%)) amounted to 3.1%.

As to `CC12CC(c3ccoc3)OC13CC(OC3=O)C1C3CC(CC12)OC3=O` (stereo not drawn) [PCM-0216321], the inhibition at 10 µM under setting [1] was found to be 2.3%.

For the compound `COc1cc(-c2oc3cc(O)cc(O)c3c(=O)c2O[C@@H]2O[C@H](CO[C@@H]3O[C@@H](C)[C@H](O)[C@@H](O)[C@H]3O)[C@@H](O)[C@H](O)[C@H]2O)ccc1O` [PCM-0216322], under setting [1], the inhibition at 10 µM was found to be 8.5%.

With `Oc1ccc2c(c1)OC[C@]1(O)Cc3cc(O)c(O)cc3[C@H]21` [PCM-0216323], the inhibition at 10 µM under setting [1] was 0%.

Take `COC(=O)C1=CO[C@@H](O[C@@H]2O[C@H](CO)[C@@H](O)[C@H](O)[C@H]2O)[C@@H]2C(CO)=C[C@H](O)[C@H]12` [PCM-0216324]: under setting [1], the inhibition at 10 µM is -7.7%.

Regarding `COc1cc2c(cc1OC)-c1c(C)c3ccc(OC)c(OC)c3c[n+]1CC2` [PCM-0216326], the inhibition at 10 µM under setting [1] is 0%.

Take `CCCCCC/C=C\CCCCCCCc1cccc(O)c1C(=O)O` [PCM-0216327]: the inhibition at 10 µM under setting [1] is 84.2%.

`CC1OC2OC3C(OCC(O)C3O)OC(=O)C34CCC(C)(C)CC3C3=CCC5C6(C)CC(O)C(OC7OC(CO)C(O)C(O)C7OC7OCC(OC(=O)CC(C)(O)CC(=O)OC1C(OC1OCC(O)C(O)C1O)C2O)C(O)C7O)C(C)(CO)C6CCC5(C)C3(C)CC4O` (stereo not drawn) [PCM-0216328]: the inhibition at 10 µM under setting [1] is -1.5%.

Consider `CCCCCCC[C@H](O)CC(=O)CCc1ccc(O)c(OC)c1` [PCM-0216329], for which, under setting [1], the inhibition at 10 µM was -41.7%.

Regarding `C=C1C[C@@]23CC[C@H]4[C@@](C)(CCC[C@@]4(C)C(=O)O)[C@@H]2CC[C@@H]1C3` [PCM-0216330], the inhibition at 10 µM under setting [1] is -3.9%.

As for `COc1cc(/C=C/C(=O)O[C@H]2[C@H](O)[C@@H](CO)O[C@@]2(CO)O[C@H]2O[C@H](CO)[C@@H](O)[C@H](O)[C@H]2O)ccc1O` [PCM-0216331], the inhibition at 10 µM under setting [1] is -3.1%.

As to `C/C=C(/C)C(=O)O[C@H]1c2cc(OC)c(OC)c(OC)c2-c2c(cc3c(c2OC)OCO3)C[C@H](C)[C@]1(C)O` [PCM-0216333], the inhibition at 10 µM under setting [1] is -25.5%.

`CCCCCCCCCCCCCc1cccc(O)c1C(=O)O` [PCM-0216334]: the inhibition at 10 µM under setting [1] came out at 34%.

On to `OC[C@H]1O[C@@](CO)(OC[C@@]2(OC[C@@]3(OC[C@@]4(O[C@H]5O[C@H](CO)[C@@H](O)[C@H](O)[C@H]5O)O[C@H](CO)[C@@H](O)[C@@H]4O)O[C@H](CO)[C@@H](O)[C@@H]3O)O[C@H](CO)[C@@H](O)[C@@H]2O)[C@@H](O)[C@@H]1O` [PCM-0216335], for which the inhibition at 10 µM under setting [1] was 6.9%.

Take `O=C(O)CC(O)C(=O)O` (stereo not drawn) [PCM-0216336]: under setting [1], the inhibition at 10 µM is -11.6%.

Regarding `C[C@@H]1OC(O)[C@@H](O)[C@H](O)[C@@H]1O` (stereo partly drawn) [PCM-0216337], the inhibition at 10 µM under setting [1] was -23.2%.

As for `O=C(O)[C@H](O)c1ccccc1` [PCM-0216338], the inhibition at 10 µM under setting [1] is -10%.

`C=C(C)C1CC=C(/C=N/O)CC1` (stereo not drawn) [PCM-0216339]: under setting [1], the inhibition at 10 µM was -2.3%.

`C[C@@H]1O[C@@H](O[C@H]2[C@H](O)[C@@H](O)[C@H](OC[C@H]3O[C@@H](OC(=O)[C@]45CCC(C)(C)C[C@H]4C4=CC[C@@H]6[C@@]7(C)CC[C@H](O[C@@H]8OC[C@H](O)[C@H](O)[C@H]8O)[C@@](C)(CO)[C@@H]7CC[C@@]6(C)[C@]4(C)CC5)[C@H](O)[C@@H](O)[C@@H]3O)O[C@@H]2CO)[C@H](O)[C@H](O)[C@H]1O` [PCM-0216340]: under setting [1], the inhibition at 10 µM was -10.2%.

On to `COC(=O)C[C@](O)(CCCC(C)(C)O)C(=O)O[C@@H]1C(OC)=C[C@]23CCCN2CCc2cc4c(cc2[C@H]13)OCO4` [PCM-0216341], for which the inhibition at 10 µM under setting [1] came to 4.6%.

In the case of `C[C@@H]1O[C@@H](O[C@H]2[C@H](O[C@H]3CC[C@@]4(C)[C@@H](CC[C@]5(C)[C@@H]4CC=C4[C@@H]6CC(C)(C)CC[C@]6(C(=O)O[C@@H]6O[C@H](CO[C@@H]7O[C@H](CO)[C@@H](O)[C@H](O)[C@H]7O)[C@@H](O)[C@H](O)[C@H]6O)CC[C@]45C)[C@]3(C)CO)OC[C@H](O)[C@@H]2O)[C@H](O)[C@H](O)[C@H]1O` [PCM-0216342], under setting [1], the inhibition at 10 µM was -25.5%.

Take `Cc1cccc2c3c(ccc12)C1=C(C(=O)C3=O)[C@@H](C)CO1` [PCM-0216343]: the inhibition at 10 µM under setting [1] came to 22.4%.

On to `CC(C)=CCC[C@@](C)(O)[C@H]1CC[C@]2(C)[C@@H]1[C@H](O)C[C@@H]1[C@@]3(C)CC[C@H](O[C@@H]4O[C@H](CO)[C@@H](O)[C@H](O)[C@H]4O)C(C)(C)[C@@H]3CC[C@]12C` [PCM-0216344], for which the inhibition at 10 µM under setting [1] is -23.2%.

`CC(C)=CCC[C@](C)(O)[C@H]1CC[C@]2(C)[C@@H]1[C@H](O)C[C@@H]1[C@@]3(C)CC[C@H](O[C@@H]4O[C@H](CO)[C@@H](O)[C@H](O)[C@H]4O)C(C)(C)[C@@H]3CC[C@]12C` [PCM-0216344]: under setting [1], the inhibition at 10 µM was found to be 7.7%.

Turning to `COC(=O)C1=CO[C@@H](O[C@@H]2O[C@H](CO)[C@@H](O)[C@H](O)[C@H]2O)[C@@H]2[C@@H](C)CC(=O)[C@]12O` [PCM-0216345], the inhibition at 10 µM under setting [1] was -3.1%.

As to `COc1c2c(cc3oc(CO[C@@H]4O[C@H](CO)[C@@H](O)[C@H](O)[C@H]4O)cc(=O)c13)O[C@H](C(C)(C)O)C2` [PCM-0216346], the inhibition at 10 µM under setting [1] is 7.7%.

Turning to `CC(C)=CCC/C(C)=C/Cc1c(O)c(CC=C(C)C)c2c(c1O)C(=O)C1=C[C@@H]3C[C@H]4C(C)(C)O[C@@](C/C=C(/C)C(=O)O)(C3=O)[C@@]14O2` [PCM-0216347], under setting [1], the inhibition at 10 µM was determined as 100%.

Consider `CC(=O)O[C@H]1CC/C(C)=C/CC/C(C)=C/C[C@]2(C(C)C)CC[C@@]1(C)O2` [PCM-0216348], for which, under setting [1], the inhibition at 10 µM was -10%.
